The nature of assay [1]: Broth microdilution MIC of free ligands, strain not specified. Particulars: Proteus hauseri, ATCC 13315 / ATCC 15442 / ATCC 25922; free ligands tested up to 500 mg/L. The format is cell-based. As to the method:
(§1) The antimicrobial susceptibility testing of synthesized complexes, free ligands, and references compounds (AgNO3 and AgSD) was performed against three Gram-negative strains: Eschericha coli ATCC 25922, Proteus hauseri ATCC 13315, and Pseudomanos aeruginosa ATCC 15442. The minimum inhibitory concentration (MIC) and minimum bactericidal concentration (MBC) were determined by a modified broth microdilution method according to the recommendation of Clinical and Laboratory Standards Institute (CLSI M07-A8). In the experiments the Mueller-Hinton broth was used, the final organism density was about 5 × 10^5 CFU/mL and the tests were performed 20 h at 37 °C. The studied compounds were dissolved in water (1, 3, 4, 6, and the ligands [except 2-CH2OHbim]) or in DMSO (2, 5, and 2-CH2OHbim), and the appropriate amounts were added to samples (to biotic controls was added pure solvent). The compounds were tested in concentration ranging from 0 mg/L to 100 mg/L, except free ligands which were tested up to 500 mg/L.

In assay [2] the test system is Escherichia coli ATCC 25922. The assay is described as follows: Broth microdilution MIC/MBC (CLSI M07-A8), E. coli. The format is cell-based. As to conditions: for MBC (minimum bactericidal concentration): E. coli ATCC 25992; for MIC (minimum inhibitory concentration): Mueller-Hinton broth, 20 h at 37 °C, triplicate (SD = 0). The procedure:
as §1
(In general: Dilution methods test growth across graded concentrations, often in twofold steps.)

In assay [3] the test system is Proteus hauseri ATCC 13315. The assay is described as follows: Broth microdilution MIC/MBC (CLSI M07-A8), P. hauseri. The format is cell-based. As to conditions: for MBC (minimum bactericidal concentration): P. hauseri ATCC 13315; for MIC (minimum inhibitory concentration): P. hauseri, Mueller-Hinton broth, 20 h at 37 °C, triplicate (SD = 0). The procedure:
as §1

Assay [4] concerns Pseudomonas aeruginosa ATCC 15442. The assay is described as follows: Broth microdilution MIC/MBC (CLSI M07-A8), P. aeruginosa. It is filed as cell-based. Particulars: for MBC (minimum bactericidal concentration): P. aeruginosa ATCC 15442; for MIC (minimum inhibitory concentration): Mueller-Hinton broth, 20 h at 37 °C, triplicate (SD = 0). The procedure: as §1
The test system of assay [5] is B16 (murine melanoma) cells. Briefly: MTT cytotoxicity assay, B16 cells. It is filed as cell-based. Particulars: 72 h incubation, three independent experiments, read-out: IC50 (concentration causing 50% reduction of cellular viability). The procedure:
The B16 (murine melanoma) cells and C3H10T1/2 (mouse fibroblast) cells were seeded 7 × 10^3 (B16) and 3 × 10^4 (10T1/2) per well/24 well plate into a medium containing DMEM GlutaMAX (Thermo Fisher Scientific, Waltham, MA USA), 10% bovine serum (Lonza, San Diego, CA, USA) added, and Antibiotic Antimicotic Solution 1:100 (Sigma-Aldrich). The plates were stored in a humidified incubator at 37 °C, 5% CO2. After 24 h, the cells were treated with the following compounds: compounds 1–6, free ligands, AgNO3, and AgSD (except control cells—wells without tested compound). Silver complexes 1, 3, 4, 6, and AgNO3 were dissolved in water. Complexes 2, 5, and AgSD are DMSO-soluble. Next, all chemicals were diluted into water to make a concentration 1, 0.1, 0.01 mg/mL and as a working solution were added to the medium. After 72 h of incubation, the cells were washed and incubated with 0.25 mg/mL MTT (Sigma-Aldrich) solution and were incubated for another 3 h. Isopropanol was added to dissolve the formazan crystals. Absorbance at 540 and 690 nm was read using Epoch Software version 2.01.14 (Bio-Tek, Winooski, VT, USA).
(In general: Formazan colour is commonly taken as a measure of viable cells.)

Another assay relates to E. coli ATCC 8739. Further details: method as in PMID 24218046. As to conditions: cited from earlier work.
A further assay concerns P. aeruginosa ATCC 27853. Further details: method as in PMID 24218046. As to conditions: cited from earlier work.
Assay [6] relates to three Gram-negative strains: Eschericha coli ATCC 25922, Proteus hauseri ATCC 13315, and Pseudomanos aeruginosa ATCC 15442. Briefly: Broth microdilution MIC of free ligands, strain not specified. The format is cell-based. As to conditions: free ligands tested up to 500 mg/L. The procedure:
as §1

Assay [7] concerns Escherichia coli ATCC 25922. Also on record: method as in PMID 25846722. Particulars: cited from earlier work.
Assay [8] deals with Proteus hauseri ATCC 13315. Further details: method as in PMID 25846722. As to conditions: cited from earlier work.
The subject of assay [9] is Pseudomonas aeruginosa ATCC 15442. Further details: method as in PMID 25846722. Particulars: cited from earlier work.
In the next assay the test system is B16 cells. Further details: method as in doi:10.1039/a702757e. As to conditions: cited from earlier work.

Read-outs that look alike come from different tables or passages of the source. Some results are limits rather than exact numbers.

As a reminder, the MIC is the smallest concentration in the dilution series that meets the test's criterion for growth inhibition. `OCc1cccc(CO)n1` [2,6-di(CH2OH)py, 2,6-di(hydroxymethyl)-pyridine]: the minimum inhibitory concentration (MIC) in [1] was more than 500 µg/mL.
`O=[N+]([O-])[O-].[Ag+]` [AgNO3, silver nitrate, reference compound]: the “MBC (minimum bactericidal concentration)” value in assay [2] was determined as 177 µM; in [3] it was 177 µM; in assay [4], 59 µM. The “MIC (minimum inhibitory concentration)” value in assay [2] (E. coli) amounted to 118 µM; in [3] it was 118 µM; in assay [4] (P. aeruginosa) it was 59 µM. In addition, the IC50 in [5] was 9.74 µM.
For the compound `CCOP(=O)(OCC)OCc1nc2ccccc2[nH]1.CCOP(=O)(OCC)OCc1nc2ccccc2[nH]1.O=[N+]([O-])O.[Ag]` [Complex 2, [Ag(2-bimOpe)2]NO3], the figures for the “MBC (minimum bactericidal concentration)” value in assay [2], in assay [3] and in assay [4] were 54 µM, 41 µM and 27 µM, respectively. Further, the results for the “MIC (minimum inhibitory concentration)” value in assay [2] (E. coli), in [3] and in assay [4] (P. aeruginosa) were 27 µM, 27 µM and 14 µM, respectively. For the same compound, the MIC with E. coli ATCC 8739 is 21.2 µM; in the assay with P. aeruginosa ATCC 27853, 5.3 µM.
`CCOP(=O)(OCC)OCc1nc2ccccc2[nH]1` [Complex 2-bimOpe]: in assay [6], the “MIC values of the free ligands” value is listed as more than 500 mg/L^−1.
For `O=[N+]([O-])[O-].OCc1cccc(CO)n1.OCc1cccc(CO)n1.[Ag+]` [Complex 3, [Ag(2,6-di(CH2OH)py)2]NO3], the results for the “MBC (minimum bactericidal concentration)” value in assay [2], in assay [3] and in assay [4] were 67 µM, 112 µM and 67 µM, respectively. The results for the “MIC (minimum inhibitory concentration)” value in assay [2] (E. coli), in assay [3] and in assay [4] (P. aeruginosa) were 67 µM, 67 µM and 45 µM, respectively.
With `O=[N+]([O-])[O-].OCc1ccncc1.OCc1ccncc1.[Ag+]` [Complex 4, [Ag(4-CH2OHpy)2]NO3], the “MBC (minimum bactericidal concentration)” value in assay [2] turned out to be 77 µM; in [3], 77 µM; in [4], 52 µM. The “MIC (minimum inhibitory concentration)” value in assay [2] (E. coli) was found to be 52 µM; in assay [3], 52 µM; in [4] (P. aeruginosa), 26 µM.
In the case of `OCc1ccncc1` [Complex 4-CH2OHpy], the MIC in assay [1] is more than 500 µg/mL.
`CCOP(=O)(OCC)OCc1ccncc1` [Complex 4-pmOpe]: the “MIC values of the free ligands” value in [6] is reported as more than 500 mg/L^−1.
Take `O=[N+]([O-])[O-].OCc1nc2ccccc2[nH]1.OCc1nc2ccccc2[nH]1.[Ag+]` [Complex 5, [Ag(2-CH2OHbim)2]NO3]: the “MBC (minimum bactericidal concentration)” value in [2] came to 21 µM; in [3] it was 43 µM; in assay [4], 21 µM. Besides, the “growth-inhibiting concentration, fold lower than that of AgSD” value in assay [2] (E. coli, MIC relative to AgSD) is given as 2.6 fold; in assay [4] (P. aeruginosa, MIC relative to AgSD), 2.6 fold. Besides, the “MIC (minimum inhibitory concentration)” value in assay [2] (E. coli), in assay [3] and in [4] (P. aeruginosa) was 21 µM in each case.
Turning to `Cc1ncc([N+](=O)[O-])n1CCO.Cc1ncc([N+](=O)[O-])n1CCO.O=[N+]([O-])[O-].[Ag+]` [Complex 6, [Ag(MTZ)2NO3]], the “MBC (minimum bactericidal concentration)” value in [7] (E. coli ATCC 25992) is given as 98 µM; in assay [8] (P. hauseri ATCC 13315) it was 117 µM; in assay [9] (P. aeruginosa ATCC 15442), 117 µM. Also, the “MIC (minimum inhibitory concentration)” value was 98 µM in assay [7] (E. coli), 98 µM in assay [8] (P. hauseri) and 59 µM in assay [9] (P. aeruginosa).
Take `N.N.[Cl][Pt][Cl]` [cis-DDP, cisplatin]: the IC50 is 7.87 µM in assay [5] and 900 nM in the assay on B16 cells.
Regarding {[Ag(4-pmOpe)]NO3}n [Complex 1], the results for the “MBC (minimum bactericidal concentration)” value in assay [2], in assay [3] and in assay [4] were 145 µM, 120 µM and 72 µM, respectively. Moreover, the “MIC (minimum inhibitory concentration)” value in assay [2] (E. coli) amounted to 96 µM; in assay [3], 72 µM; in assay [4] (P. aeruginosa), 48 µM. In assay [5], the IC50 stood at 13 µM. Moreover, the MIC with E. coli ATCC 8739 and in the assay with P. aeruginosa ATCC 27853 was 37.6 µM each time.

Source of the values: article PMC6274122, “Antibacterial Activity and Cytotoxicity of Silver(I) Complexes of Pyridine and (Benz)Imidazole Derivatives. X-ray Crystal Structure of [Ag(2,6-di(CH2OH)py)2]NO3” (Molecules, 2016).
